# Results as given in PubChem BioAssay AID2060328 (Molecular Pharmacology Branch, DTP, NCI, 2025).
# “And” between values parts separate entries of the source, which are not always exact repeats. Identical values can stand only once.
# Test system: MDA-MB-231 multicell spheroids, viability (%T/C)
# Assay: Anticancer human tumor MDA-MB-231 cell line growth inhibition [IpAb];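 also: viability read after seven days of drug exposure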;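 as to viability, T/C: 100% = DMSO vehicle control viability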
# Details: for viability, T/C: stronger effect = lower value
# Outline: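 Multi-cell spheroids of 60% tumour cells, 25% HUVEC and 15% MSC in ultra-low-attachment U-bottom wells, treated with agents combined with ipatasertib or abemaciclib. Half-log ranges top out near clinical Cmax, or 10 microM when Cmax is unknown.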
structure (smiles),measurement,setting,value
C=CC(=O)N1CCN(c2nc(=O)n(-c3c(C)ccnc3C(C)C)c3nc(-c4c(O)cccc4F)c(F)cc23)C(C)C1 (stereo not drawn) + CCN1CCN(Cc2ccc(Nc3ncc(F)c(-c4cc(F)c5nc(C)n(C(C)C)c5c4)n3)nc2)CC1,IC50,"curve of first compound, second compound 0.01 µM",> 10 µM
same,IC50,"curve of first compound, second compound 0.0316 µM",> 10 µM
same,IC50,"curve of first compound, second compound 0.1 µM",> 10 µM
same,IC50,"curve of first compound, second compound 0.316 µM",> 10 µM
same,IC50,"curve of first compound, second compound 1 µM",> 10 µM
same,"viability, T/C","second compound 0.01 µM, first compound 0.0316 µM",91.9%
same,"viability, T/C","second compound 0.01 µM, first compound 0.1 µM",93.1%
same,"viability, T/C","second compound 0.01 µM, first compound 0.316 µM",107%
same,"viability, T/C","second compound 0.01 µM, first compound 1 µM",120%
same,"viability, T/C","second compound 0.01 µM, first compound 3.16 µM",111%
same,"viability, T/C","second compound 0.01 µM, first compound 10 µM",76.3%
same,"viability, T/C","second compound 0.0316 µM, first compound 0.0316 µM",78.5%
same,"viability, T/C","second compound 0.0316 µM, first compound 0.1 µM",88.4%
same,"viability, T/C","second compound 0.0316 µM, first compound 0.316 µM",89.9%
same,"viability, T/C","second compound 0.0316 µM, first compound 1 µM",101%
same,"viability, T/C","second compound 0.0316 µM, first compound 3.16 µM",92.3%
same,"viability, T/C","second compound 0.0316 µM, first compound 10 µM",66.4%
same,"viability, T/C","second compound 0.1 µM, first compound 0.0316 µM",61.3%
same,"viability, T/C","second compound 0.1 µM, first compound 0.1 µM",66.2%
same,"viability, T/C","second compound 0.1 µM, first compound 0.316 µM",73.8%
same,"viability, T/C","second compound 0.1 µM, first compound 1 µM",84.4%
same,"viability, T/C","second compound 0.1 µM, first compound 3.16 µM",74%
same,"viability, T/C","second compound 0.1 µM, first compound 10 µM",59.1%
same,"viability, T/C","second compound 0.316 µM, first compound 0.0316 µM",48.3%
same,"viability, T/C","second compound 0.316 µM, first compound 0.1 µM",51.3%
same,"viability, T/C","second compound 0.316 µM, first compound 0.316 µM",58.6%
same,"viability, T/C","second compound 0.316 µM, first compound 1 µM",65.9%
same,"viability, T/C","second compound 0.316 µM, first compound 3.16 µM",60.7%
same,"viability, T/C","second compound 0.316 µM, first compound 10 µM",59%
same,"viability, T/C","second compound 1 µM, first compound 0.0316 µM",50.8%
same,"viability, T/C","second compound 1 µM, first compound 0.1 µM",56.2%
same,"viability, T/C","second compound 1 µM, first compound 0.316 µM",61.1%
same,"viability, T/C","second compound 1 µM, first compound 1 µM",67.1%
same,"viability, T/C","second compound 1 µM, first compound 3.16 µM",71.7%
same,"viability, T/C","second compound 1 µM, first compound 10 µM",61.8%
C=CC(=O)N1CCN(c2nc(=O)n(-c3c(C)ccnc3C(C)C)c3nc(-c4c(O)cccc4F)c(F)cc23)C(C)C1 (stereo not drawn),"viability, T/C",compound 0.0316 µM,106% and 110%
same,"viability, T/C",compound 0.1 µM,111% and 109%
same,"viability, T/C",compound 0.316 µM,109% and 117%
same,"viability, T/C",compound 1 µM,124% and 140%
same,"viability, T/C",compound 3.16 µM,122% and 126%
same,"viability, T/C",compound 10 µM,82% and 84.4%
same,IC50,curve of compound,> 10 µM
COc1c(OCCCN2CCOCC2)ccc2c3n(c(=NC(=O)c4cnc(N)nc4)nc12)CCN3,"viability, T/C",compound 0.00316 µM,84% and 88.5%
same,"viability, T/C",compound 0.01 µM,70.3% and 69.2%
same,"viability, T/C",compound 0.0316 µM,55.8% and 53.5%
same,"viability, T/C",compound 0.1 µM,43.3% and 42%
same,"viability, T/C",compound 0.316 µM,34.1% and 33.4%
same,"viability, T/C",compound 1 µM,37.6% and 40.3%
same,IC50,curve of compound,0.0501 µM and 0.0395 µM
Cn1ncc(Cl)c1-c1cc(C(=O)NC(CN)Cc2cccc(F)c2)sc1Cl (stereo not drawn),"viability, T/C",compound 0.0316 µM,100% and 101%
same,"viability, T/C",compound 0.1 µM,89.6% and 87.9%
same,"viability, T/C",compound 0.316 µM,75.6%
same,"viability, T/C",compound 1 µM,57.4% and 57.5%
same,"viability, T/C",compound 3.16 µM,37.4% and 30%
same,"viability, T/C",compound 10 µM,0.23% and 0.17%
same,IC50,curve of compound,1.52 µM and 1.33 µM
CC1(C)CCC(CN2CCN(c3ccc(C(=O)NS(=O)(=O)c4ccc(NCC5CCOCC5)c([N+](=O)[O-])c4)c(Oc4cnc5[nH]ccc5c4)c3)CC2)=C(c2ccc(Cl)cc2)C1,"viability, T/C",compound 0.0316 µM,104% and 106%
same,"viability, T/C",compound 0.1 µM,105% and 104%
same,"viability, T/C",compound 0.316 µM,103% and 105%
same,"viability, T/C",compound 1 µM,98.5% and 103%
same,"viability, T/C",compound 3.16 µM,88.7% and 99.5%
same,"viability, T/C",compound 10 µM,10.3% and 8.49%
same,IC50,curve of compound,5.57 µM and 5.91 µM
